Activity calls are given as the source filed them.
Experiments:
[1] = molecular target: T1, Replicative DNA helicase DnaB (Mycobacterium tuberculosis, UniProt P9WMR3); experiment: DnaB intein splicing inhibitors, dose response, biochemical, cell-free fluorescence (AID 449749); assay type: functional
T1 sequence (P9WMR3 whole entry): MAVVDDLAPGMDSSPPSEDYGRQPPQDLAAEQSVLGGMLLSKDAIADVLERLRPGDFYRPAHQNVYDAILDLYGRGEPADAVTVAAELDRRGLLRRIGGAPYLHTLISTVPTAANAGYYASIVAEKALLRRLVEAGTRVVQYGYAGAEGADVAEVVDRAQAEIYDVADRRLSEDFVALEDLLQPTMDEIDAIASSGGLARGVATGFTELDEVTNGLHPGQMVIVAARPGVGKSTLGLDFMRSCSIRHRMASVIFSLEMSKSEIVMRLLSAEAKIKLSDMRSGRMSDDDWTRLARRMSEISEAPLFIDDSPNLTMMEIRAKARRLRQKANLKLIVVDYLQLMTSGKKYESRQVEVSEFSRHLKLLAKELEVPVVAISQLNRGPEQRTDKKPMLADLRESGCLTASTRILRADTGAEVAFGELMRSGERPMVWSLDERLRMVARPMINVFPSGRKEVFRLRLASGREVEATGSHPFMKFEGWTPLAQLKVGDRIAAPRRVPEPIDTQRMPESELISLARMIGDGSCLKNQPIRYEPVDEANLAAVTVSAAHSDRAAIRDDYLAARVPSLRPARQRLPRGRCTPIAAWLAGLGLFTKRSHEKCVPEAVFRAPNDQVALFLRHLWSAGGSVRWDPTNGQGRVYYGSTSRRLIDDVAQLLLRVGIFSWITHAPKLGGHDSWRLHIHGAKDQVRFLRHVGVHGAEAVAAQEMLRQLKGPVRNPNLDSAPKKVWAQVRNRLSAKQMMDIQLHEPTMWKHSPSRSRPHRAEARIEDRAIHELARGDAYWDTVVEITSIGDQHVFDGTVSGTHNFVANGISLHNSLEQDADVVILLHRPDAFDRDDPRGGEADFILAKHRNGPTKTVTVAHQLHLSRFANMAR

Protein RecA = molecular target: T2, Protein RecA (Mycobacterium tuberculosis, UniProt P9WHJ3); experiment: Fluorescence Cell-Free Homogeneous Dose Retest to Identify Inhibitors of RecA-Intein Splicing Activity. [Related pubchem assays (depositor defined):AID2097, AID2223, AID489010, AID492950]; assay type: functional
T2 sequence (P9WHJ3 whole entry): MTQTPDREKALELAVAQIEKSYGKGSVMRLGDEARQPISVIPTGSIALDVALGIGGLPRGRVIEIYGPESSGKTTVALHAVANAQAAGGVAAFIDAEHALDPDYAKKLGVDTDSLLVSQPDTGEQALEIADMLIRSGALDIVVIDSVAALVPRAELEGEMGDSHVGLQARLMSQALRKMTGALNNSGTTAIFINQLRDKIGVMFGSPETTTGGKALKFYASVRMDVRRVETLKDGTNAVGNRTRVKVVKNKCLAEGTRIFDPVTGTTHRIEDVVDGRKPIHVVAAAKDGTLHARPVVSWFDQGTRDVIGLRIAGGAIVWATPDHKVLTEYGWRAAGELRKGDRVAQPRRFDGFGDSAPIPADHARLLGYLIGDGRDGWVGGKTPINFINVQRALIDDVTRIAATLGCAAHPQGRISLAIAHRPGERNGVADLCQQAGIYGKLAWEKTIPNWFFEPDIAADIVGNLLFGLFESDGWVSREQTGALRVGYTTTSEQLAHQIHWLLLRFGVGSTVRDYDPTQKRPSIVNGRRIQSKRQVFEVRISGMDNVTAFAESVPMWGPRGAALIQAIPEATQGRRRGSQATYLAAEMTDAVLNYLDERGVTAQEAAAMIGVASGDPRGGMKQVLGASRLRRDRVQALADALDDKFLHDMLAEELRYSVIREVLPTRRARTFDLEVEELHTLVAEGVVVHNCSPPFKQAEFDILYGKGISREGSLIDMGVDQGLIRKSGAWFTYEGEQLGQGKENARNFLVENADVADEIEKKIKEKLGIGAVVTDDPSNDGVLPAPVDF

Paired box protein Pax-8 = Paired box protein Pax-8 (Homo sapiens, UniProt Q06710); experiment: inhibitors of PAX8-driven TPO luciferase reporter, dose response, RMG-I cells, cherry-pick (AID 687027); assay type: functional, cell-based;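 further: luciferase reporter driven by Pax8 target thyroperoxidase promoter measured by SteadyGlo luminescence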
[2] = PAX2 cell-based inhibition, dose response, selectivity assay for PAX8 inhibitor project, plate reader, dry powder samples (AID 743048); assay type: functional;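 further: HEK293 cells carrying a WT1 promoter luciferase reporter driven by expressed Pax2; potency is for inhibition of Pax2 driven reporter signal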
[3] = IOSE-T80 ovarian epithelial cell cytotoxicity, dose response, cytotoxicity control for PAX8 inhibitor project, plate reader, dry powder samples (AID 743045); assay type: functional, cell-based
[4] = NIH:OVCAR-3 ovarian cancer cell cytotoxicity, dose response, PAX8 inhibitor project, plate reader, dry powder samples (AID 743044); assay type: functional, cell-based
[5] = cytotoxicity in COV434 cells, dose response, cytotoxicity control for PAX8 inhibitor project, cell-based, plate reader, dry powder, SA7 (AID 743145); assay type: functional
[6] = cytotoxicity dependent on PAX8, dose response, cell-based, plate reader, dry powder (AID 743049); assay type: functional
Protein skinhead-1 = molecular target: T3, Protein skinhead-1 (Caenorhabditis elegans, UniProt P34707); assay type: functional
T3 sequence (P34707 whole entry): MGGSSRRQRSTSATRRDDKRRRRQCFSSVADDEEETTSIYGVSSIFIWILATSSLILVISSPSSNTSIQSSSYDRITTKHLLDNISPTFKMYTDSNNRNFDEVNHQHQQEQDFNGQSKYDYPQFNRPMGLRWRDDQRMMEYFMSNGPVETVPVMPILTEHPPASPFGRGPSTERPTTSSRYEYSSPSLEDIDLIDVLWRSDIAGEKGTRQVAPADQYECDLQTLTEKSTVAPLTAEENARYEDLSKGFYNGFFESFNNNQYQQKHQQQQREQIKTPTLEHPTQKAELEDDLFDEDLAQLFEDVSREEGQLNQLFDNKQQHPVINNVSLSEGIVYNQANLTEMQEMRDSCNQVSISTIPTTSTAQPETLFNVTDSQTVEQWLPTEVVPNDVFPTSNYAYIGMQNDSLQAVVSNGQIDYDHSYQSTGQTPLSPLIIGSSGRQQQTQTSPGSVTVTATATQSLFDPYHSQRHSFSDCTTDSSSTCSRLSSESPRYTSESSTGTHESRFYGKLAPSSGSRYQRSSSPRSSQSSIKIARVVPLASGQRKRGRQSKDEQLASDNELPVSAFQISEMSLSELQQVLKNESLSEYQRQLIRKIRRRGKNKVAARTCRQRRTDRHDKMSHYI

[7] = Luminescence-based cell-based high throughput dose response assay to identify activators of the DAF-12 from the parasite S. stercoralis (ssDAF-12).; assay type: functional
[8] = molecular target: T4, Oxysterols receptor LXR-beta (Homo sapiens, UniProt P55055); experiment: LXR agonists, Gal4 luciferase reporter, dose response, counter-screen for ssDAF-12 agonist project, cell-based, luminescence, HEK293, S. stercoralis campaign (AID 720737); assay type: functional; conditions: read-out: IC50 (the source's name)
T4 sequence (P55055 whole entry): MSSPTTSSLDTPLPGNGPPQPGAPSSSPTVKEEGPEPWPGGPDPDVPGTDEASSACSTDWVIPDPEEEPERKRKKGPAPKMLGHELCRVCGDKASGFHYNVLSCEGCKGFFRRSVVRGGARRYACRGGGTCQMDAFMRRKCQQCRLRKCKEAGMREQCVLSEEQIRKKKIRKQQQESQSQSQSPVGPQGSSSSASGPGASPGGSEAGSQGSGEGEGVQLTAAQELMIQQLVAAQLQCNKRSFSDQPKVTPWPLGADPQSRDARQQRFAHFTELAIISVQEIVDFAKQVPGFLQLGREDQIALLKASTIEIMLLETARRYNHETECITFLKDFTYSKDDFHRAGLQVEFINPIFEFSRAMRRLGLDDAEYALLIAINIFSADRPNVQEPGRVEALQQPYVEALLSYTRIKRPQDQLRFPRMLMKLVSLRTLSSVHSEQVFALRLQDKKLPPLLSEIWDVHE

[9] = inhibitors of firefly luciferase expression or activity, dose response, H4 neuroglioma cells, luminescence (AID 1990); assay type: functional, cell-based
[10] = test system: Streptococcus sp. 'group A'; experiment: growth inhibition of control SK(-) GAS strain, dose response, counter-screen for streptokinase expression inhibitor project, luminescence, kanamycin, BacTiterGlo, confirmation (AID 1900); assay type: functional, organism-based
[11] = Luminescence Cell-Based Dose Response HTS to Identify Inhibitors of 5'UTR Stem-Loop Driven Prion Protein mRNA Translation in H4 Neuroglioblastoma Cells. [Related pubchem assays: 1827 (Project Summary), 1813 (Primary HTS)]; assay type: functional
[12] = inhibitors of SNCA 5'UTR-driven reporter translation, confirmation, H4 neuroglioma cells, luminescence (AID 1988); assay type: functional, cell-based
Streptococcus = experiment: Group A Streptococcus viability loss, dose response, counter-screen for streptokinase expression inhibitor project, luminescence, BacTiterGlo (AID 1915); assay type: functional, organism-based;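 further: potency for reduction of bacterial viability or growth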
[13] = Luminescence Cell-Based Dose Retest to Confirm Inhibitors of Cancer Stem Cells. [Related pubchem assays (depositor defined):AID2717, AID2721]; assay type: functional; conditions: Homo sapiens
Cytochrome P450 2C19 = Cytochrome P450 2C19 (Homo sapiens, UniProt P33261); experiment: Cytochrome panel assay with activity outcomes. Panel member name: p450-cyp2c19 Compounds with AC50 equal or less than 10 uM are considered active; assay type: functional; conditions: read-out: AC50
[14] = Artemis endonuclease inhibitor potency, dose response, biochemical, fluorescence intensity (AID 720701); assay type: functional;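 further: Artemis endonuclease enzyme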
Cytochrome P450 2D6 = Cytochrome P450 2D6 (Homo sapiens, UniProt P10635);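 further: CYP2D6 member of a cytochrome P450 panel assay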
[15] = molecular target: RNA-editing ligase 1, mitochondrial (Trypanosoma brucei brucei, UniProt P86926); experiment: TbREL1 ligase inhibitors, dose response, biochemical, fluorescence, Trypanosoma brucei (AID 1117295); assay type: functional
[16] = A Cell Based Secondary Assay To Explore Cytotoxicity of Compounds that Sensitize Mycobacterium Tuberculosis to Beta-Lactam Antibiotics.; assay type: functional
Kallikrein-7 = Kallikrein-7 (Homo sapiens, UniProt P49862); experiment: Fluorescence Intensity-based biochemical primary high throughput dose response assay to identify activators of kallikrein-7 (K7) zymogen.
Sequence of Kallikrein-7 (P49862 whole entry): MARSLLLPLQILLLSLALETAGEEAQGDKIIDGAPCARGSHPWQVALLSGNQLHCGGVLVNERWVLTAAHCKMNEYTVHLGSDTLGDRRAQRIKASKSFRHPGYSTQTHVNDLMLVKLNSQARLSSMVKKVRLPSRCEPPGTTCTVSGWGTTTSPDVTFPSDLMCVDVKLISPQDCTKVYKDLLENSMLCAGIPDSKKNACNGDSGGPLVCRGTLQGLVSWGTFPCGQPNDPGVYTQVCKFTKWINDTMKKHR

Sequence of RNA-editing ligase 1, mitochondrial (P86926 whole entry): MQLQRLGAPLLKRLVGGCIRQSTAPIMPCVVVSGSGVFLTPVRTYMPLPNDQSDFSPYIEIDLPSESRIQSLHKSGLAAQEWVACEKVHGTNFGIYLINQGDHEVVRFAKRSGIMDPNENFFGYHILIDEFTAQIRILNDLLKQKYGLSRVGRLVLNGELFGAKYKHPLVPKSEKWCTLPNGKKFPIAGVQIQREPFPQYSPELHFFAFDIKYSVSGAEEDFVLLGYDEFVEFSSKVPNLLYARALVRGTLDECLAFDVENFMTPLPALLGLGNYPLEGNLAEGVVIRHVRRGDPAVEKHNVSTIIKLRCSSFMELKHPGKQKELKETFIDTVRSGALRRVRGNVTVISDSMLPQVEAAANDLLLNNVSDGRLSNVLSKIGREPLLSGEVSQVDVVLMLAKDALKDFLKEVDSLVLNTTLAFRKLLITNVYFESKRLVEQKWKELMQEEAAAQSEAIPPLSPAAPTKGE
Sequence of Cytochrome P450 2D6 (P10635 whole entry): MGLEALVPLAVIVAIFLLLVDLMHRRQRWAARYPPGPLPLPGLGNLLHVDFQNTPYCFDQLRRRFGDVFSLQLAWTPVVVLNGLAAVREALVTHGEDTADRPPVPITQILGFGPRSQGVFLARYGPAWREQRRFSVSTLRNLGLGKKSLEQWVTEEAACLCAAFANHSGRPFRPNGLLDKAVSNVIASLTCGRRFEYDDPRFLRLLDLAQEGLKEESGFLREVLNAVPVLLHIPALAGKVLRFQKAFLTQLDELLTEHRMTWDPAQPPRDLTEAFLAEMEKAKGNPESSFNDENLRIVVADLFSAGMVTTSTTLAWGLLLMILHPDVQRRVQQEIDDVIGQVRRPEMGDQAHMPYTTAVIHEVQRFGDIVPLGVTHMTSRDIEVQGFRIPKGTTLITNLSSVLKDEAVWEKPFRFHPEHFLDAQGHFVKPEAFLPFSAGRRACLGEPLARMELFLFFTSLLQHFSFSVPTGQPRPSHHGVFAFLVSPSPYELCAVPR
Sequence of Paired box protein Pax-8 (Q06710 whole entry): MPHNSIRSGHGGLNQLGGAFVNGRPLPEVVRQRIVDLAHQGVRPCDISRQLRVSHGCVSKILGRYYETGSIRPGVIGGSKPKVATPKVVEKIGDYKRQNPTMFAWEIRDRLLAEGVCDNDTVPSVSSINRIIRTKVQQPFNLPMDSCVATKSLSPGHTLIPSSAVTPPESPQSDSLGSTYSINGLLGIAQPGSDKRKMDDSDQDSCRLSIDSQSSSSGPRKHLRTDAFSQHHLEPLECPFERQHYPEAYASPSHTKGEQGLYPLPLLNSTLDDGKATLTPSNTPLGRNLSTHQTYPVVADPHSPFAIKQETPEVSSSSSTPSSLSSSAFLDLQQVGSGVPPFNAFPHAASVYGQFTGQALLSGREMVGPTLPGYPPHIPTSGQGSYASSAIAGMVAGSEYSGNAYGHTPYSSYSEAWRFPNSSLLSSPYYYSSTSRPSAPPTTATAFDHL
Sequence of Cytochrome P450 2C19 (P33261 whole entry): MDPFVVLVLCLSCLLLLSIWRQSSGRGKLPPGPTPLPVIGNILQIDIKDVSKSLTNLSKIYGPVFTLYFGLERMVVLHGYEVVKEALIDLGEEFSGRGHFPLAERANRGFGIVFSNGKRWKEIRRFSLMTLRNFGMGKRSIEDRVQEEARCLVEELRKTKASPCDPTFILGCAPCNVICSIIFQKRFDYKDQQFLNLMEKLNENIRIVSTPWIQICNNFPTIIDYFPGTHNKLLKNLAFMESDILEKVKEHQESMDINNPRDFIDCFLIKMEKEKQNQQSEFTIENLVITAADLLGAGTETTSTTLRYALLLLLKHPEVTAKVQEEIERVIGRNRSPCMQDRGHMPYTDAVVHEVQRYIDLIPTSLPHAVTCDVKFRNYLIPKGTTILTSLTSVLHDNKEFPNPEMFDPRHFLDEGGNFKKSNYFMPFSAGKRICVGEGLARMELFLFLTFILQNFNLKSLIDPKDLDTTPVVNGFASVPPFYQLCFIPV

Q: Which results are given for `O=C1/C(=C/c2ccccc2F)SC(=S)N1CC(=O)N1CCCCC1c1cccnc1` (stereo not drawn)?
A: AC50 [1]: 17.9 µM (active); EC50 (Protein RecA): 18.6 µM (active); AC50 (Paired box protein Pax-8): 5.04 µM (active); AC50 [2]: > 100 µM (inactive); AC50 [3]: 43.5 µM (active); AC50 [4]: 26.3 µM (active); AC50 [5]: 38.3 µM (active); AC50 [6]: 44.9 µM (active)

Q: Which results are given for `Fc1ccc(-c2csc(Nc3ccccn3)n2)cc1`?
A: IC50 (Protein skinhead-1): 22.8 µM (active); IC50 [7]: > 67.6 µM (inactive); EC50 [8]: > 67.6 µM (inactive)

Q: For `Nc1nn2c(O)cc(-c3ccccc3)nc2c1N=Nc1ccccc1`, which EC50 [9] is on record?
A: Its EC50 is > 60 µM (not active).

Q: And the EC50 [10]?
A: Its EC50 is 1.67 µM (active).

Q: And the EC50 [11]?
A: The EC50 was 12.7 µM (active).

Q: What about the EC50 [12] of the same compound?
A: The EC50 was 10.5 µM (active).

Q: What about the EC50 (Streptococcus) of the same compound?
A: The EC50 was 4.43 µM (active).

Q: And the AC50 [13]?
A: Its AC50 is 1.62 µM (active).

Q: What about the AC50 (Cytochrome P450 2C19) of the same compound?
A: Its AC50 is 28.2 µM (inconclusive).

Q: And the IC50 [14]?
A: The IC50 was 19.9 µM (active).

Q: And the AC50 (Cytochrome P450 2D6)?
A: The AC50 was 28.2 µM (inconclusive).

Q: Which IC50 [15] does the source give for `C=CCNCCOCCOc1ccc(Cl)cc1C(C)(C)C` here?
A: Its IC50 is > 96.6 µM (inactive).

Q: Which CC50 [16] does the source give for `COc1ccc(OC(=O)c2cccc([N+](=O)[O-])c2)c(C(=O)/C=C/c2cccs2)c1` here?
A: The CC50 was 39.6 µM (active).

Q: And the EC50 (Kallikrein-7)?
A: The EC50 was 46 µM (inactive).
